Data from the kinase profiling compilation of Christmann-Franck et al. (2016).
Values joined by “and” are separate entries in the source; they are usually repeats but may differ in a detail not shown here. Equal values may be shown once.

Tests used:
Assay in all cases: radiometric filter-binding kinase assay, Kinase HotSpot
Settings in all cases: compound 0.5 µM; ATP 10 µM
TGFBR2 (human) = TGFBR2 (human) (UniProt P37173)
LCK (human) = LCK (human) (UniProt P06239)
JAK3 JH1 JH2 (human) = JAK3 JH1 JH2 (human) (UniProt P52333)
MAP4K4 (human) = MAP4K4 (human) (UniProt O95819)
CAMK4 (human) = CAMK4 (human) (UniProt Q16566)
CAMK1 (human) = CAMK1 (human) (UniProt Q14012)
Chain of CAMK1 (human) (Q14012 whole entry, looked up): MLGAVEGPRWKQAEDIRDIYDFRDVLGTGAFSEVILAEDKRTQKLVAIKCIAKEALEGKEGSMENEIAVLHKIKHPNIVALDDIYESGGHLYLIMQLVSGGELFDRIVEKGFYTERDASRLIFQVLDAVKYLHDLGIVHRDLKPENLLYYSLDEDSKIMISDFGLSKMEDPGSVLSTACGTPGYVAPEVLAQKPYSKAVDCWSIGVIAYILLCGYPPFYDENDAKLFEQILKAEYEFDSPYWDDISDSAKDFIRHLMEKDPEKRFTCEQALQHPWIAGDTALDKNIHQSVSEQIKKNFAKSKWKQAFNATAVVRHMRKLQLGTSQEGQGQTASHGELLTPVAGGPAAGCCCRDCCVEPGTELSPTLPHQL

CAMK2A (human) = CAMK2A (human) (UniProt Q9UQM7)
NEK9 (human) = NEK9 (human) (UniProt Q8TD19)
Chain of NEK9 (human) (Q8TD19 whole entry, looked up): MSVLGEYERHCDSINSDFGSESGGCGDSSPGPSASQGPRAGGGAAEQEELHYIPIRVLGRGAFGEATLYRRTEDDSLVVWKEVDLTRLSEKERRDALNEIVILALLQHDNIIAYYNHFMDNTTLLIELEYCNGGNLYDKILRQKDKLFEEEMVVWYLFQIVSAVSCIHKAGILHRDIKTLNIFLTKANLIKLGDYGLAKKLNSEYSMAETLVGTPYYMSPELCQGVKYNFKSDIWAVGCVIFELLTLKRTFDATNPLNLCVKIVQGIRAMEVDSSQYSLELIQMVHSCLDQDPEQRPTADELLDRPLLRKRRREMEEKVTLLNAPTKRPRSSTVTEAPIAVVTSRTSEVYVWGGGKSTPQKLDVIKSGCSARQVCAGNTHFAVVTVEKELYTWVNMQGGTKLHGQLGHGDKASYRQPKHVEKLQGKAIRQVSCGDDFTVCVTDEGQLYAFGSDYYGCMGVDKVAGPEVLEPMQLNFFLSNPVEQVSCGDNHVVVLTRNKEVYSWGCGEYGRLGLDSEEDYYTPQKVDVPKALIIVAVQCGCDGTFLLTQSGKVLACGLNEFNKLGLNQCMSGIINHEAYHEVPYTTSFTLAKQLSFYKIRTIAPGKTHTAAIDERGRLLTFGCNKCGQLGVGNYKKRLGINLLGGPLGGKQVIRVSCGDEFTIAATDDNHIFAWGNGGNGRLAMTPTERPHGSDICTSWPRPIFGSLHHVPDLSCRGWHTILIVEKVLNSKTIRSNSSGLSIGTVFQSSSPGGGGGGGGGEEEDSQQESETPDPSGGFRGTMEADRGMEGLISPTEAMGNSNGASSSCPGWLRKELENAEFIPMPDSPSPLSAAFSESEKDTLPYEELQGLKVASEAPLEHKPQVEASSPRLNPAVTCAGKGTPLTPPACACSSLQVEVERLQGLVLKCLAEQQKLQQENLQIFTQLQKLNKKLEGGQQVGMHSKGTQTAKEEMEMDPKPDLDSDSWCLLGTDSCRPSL

MAPKAPK3 (human) = MAPKAPK3 (human) (UniProt Q16644)
Chain of MAPKAPK3 (human) (Q16644 whole entry, looked up): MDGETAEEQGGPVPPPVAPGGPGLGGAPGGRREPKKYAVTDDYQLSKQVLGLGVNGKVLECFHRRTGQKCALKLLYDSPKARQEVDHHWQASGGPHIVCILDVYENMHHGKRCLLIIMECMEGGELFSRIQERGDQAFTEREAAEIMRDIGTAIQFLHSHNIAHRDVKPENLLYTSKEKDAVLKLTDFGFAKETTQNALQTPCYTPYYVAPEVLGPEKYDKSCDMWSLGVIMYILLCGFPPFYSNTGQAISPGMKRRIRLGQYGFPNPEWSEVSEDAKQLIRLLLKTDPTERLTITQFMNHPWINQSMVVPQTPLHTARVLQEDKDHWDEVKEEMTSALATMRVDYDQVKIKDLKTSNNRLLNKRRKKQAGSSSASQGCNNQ

CLK1 (human) = CLK1 (human) (UniProt P49759)
IRAK1 (human) = IRAK1 (human) (UniProt P51617)
FGR (human) = FGR (human) (UniProt P09769)
CDK6 CCND3 (human) = CDK6 CCND3 (human) (UniProt P30281+Q00534)
PASK (human) = PASK (human) (UniProt Q96RG2)
MAP2K1 (human) = MAP2K1 (human) (UniProt Q02750)
MAP3K11 (human) = MAP3K11 (human) (UniProt Q16584)
CDK5 CDK5R1 p35 (human) = CDK5 CDK5R1 p35 (human) (UniProt Q00535+Q15078)
PNCK (human) = PNCK (human) (UniProt Q6P2M8)
MAPK8 (human) = MAPK8 (human) (UniProt P45983)
STK3 (human) = STK3 (human) (UniProt Q13188)
CAMK2B (human) = CAMK2B (human) (UniProt Q13554)
MAPK3 (human) = MAPK3 (human) (UniProt P27361)
Chain of MAPK3 (human) (P27361 whole entry, looked up): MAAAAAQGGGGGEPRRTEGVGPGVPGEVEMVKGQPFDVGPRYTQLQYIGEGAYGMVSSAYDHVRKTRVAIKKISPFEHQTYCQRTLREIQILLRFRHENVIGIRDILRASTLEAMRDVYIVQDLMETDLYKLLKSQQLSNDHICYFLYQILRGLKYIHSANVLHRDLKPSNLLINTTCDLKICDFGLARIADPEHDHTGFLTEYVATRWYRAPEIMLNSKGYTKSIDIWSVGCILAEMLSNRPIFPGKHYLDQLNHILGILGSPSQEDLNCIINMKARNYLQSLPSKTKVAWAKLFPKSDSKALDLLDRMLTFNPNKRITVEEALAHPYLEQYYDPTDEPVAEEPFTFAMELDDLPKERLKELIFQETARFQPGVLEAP

STK16 (human) = STK16 (human) (UniProt O75716)
GRK5 (human) = GRK5 (human) (UniProt P34947)
STK17A (human) = STK17A (human) (UniProt Q9UEE5)
STK25 (human) = STK25 (human) (UniProt O00506)
NEK6 (human) = NEK6 (human) (UniProt Q9HC98)
MYLK (human) = MYLK (human) (UniProt Q15746)
EPHB3 (human) = EPHB3 (human) (UniProt P54753)
MAP3K7 TAB1 (human) = MAP3K7 TAB1 (human) (UniProt O43318+Q15750)
STK38 (human) = STK38 (human) (UniProt Q15208)
STK10 (human) = STK10 (human) (UniProt O94804)
Chain of STK10 (human) (O94804 whole entry, looked up): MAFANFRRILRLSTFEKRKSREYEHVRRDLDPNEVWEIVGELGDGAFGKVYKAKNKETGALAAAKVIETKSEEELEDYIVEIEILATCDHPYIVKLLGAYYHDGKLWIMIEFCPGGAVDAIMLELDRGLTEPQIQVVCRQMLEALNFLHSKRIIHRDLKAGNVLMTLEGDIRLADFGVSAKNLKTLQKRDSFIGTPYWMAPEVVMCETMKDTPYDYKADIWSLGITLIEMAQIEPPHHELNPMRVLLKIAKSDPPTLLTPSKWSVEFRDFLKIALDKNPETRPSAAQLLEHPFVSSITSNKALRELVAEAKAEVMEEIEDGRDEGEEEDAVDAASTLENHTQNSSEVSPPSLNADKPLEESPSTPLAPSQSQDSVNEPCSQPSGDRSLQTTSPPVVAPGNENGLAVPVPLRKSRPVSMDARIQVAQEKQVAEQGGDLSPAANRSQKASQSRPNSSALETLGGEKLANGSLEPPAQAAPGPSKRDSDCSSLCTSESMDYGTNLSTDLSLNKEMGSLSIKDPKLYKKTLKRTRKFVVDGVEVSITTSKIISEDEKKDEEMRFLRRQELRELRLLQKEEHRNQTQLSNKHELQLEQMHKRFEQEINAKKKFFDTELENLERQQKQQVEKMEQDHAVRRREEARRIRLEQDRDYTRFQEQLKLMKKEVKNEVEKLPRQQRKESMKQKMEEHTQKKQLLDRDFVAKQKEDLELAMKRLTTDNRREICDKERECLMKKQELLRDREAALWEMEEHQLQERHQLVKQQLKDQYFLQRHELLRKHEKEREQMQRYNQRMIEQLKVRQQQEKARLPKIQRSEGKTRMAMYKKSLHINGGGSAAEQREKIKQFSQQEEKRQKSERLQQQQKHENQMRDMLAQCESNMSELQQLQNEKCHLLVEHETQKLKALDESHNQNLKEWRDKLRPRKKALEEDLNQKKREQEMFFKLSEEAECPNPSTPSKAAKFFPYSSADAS

STK33 (human) = STK33 (human) (UniProt Q9BYT3)
MAP3K5 (human) = MAP3K5 (human) (UniProt Q99683)
DCLK2 (human) = DCLK2 (human) (UniProt Q8N568)
SRC (human) = SRC (human) (UniProt P12931)
Chain of SRC (human) (P12931 whole entry, looked up): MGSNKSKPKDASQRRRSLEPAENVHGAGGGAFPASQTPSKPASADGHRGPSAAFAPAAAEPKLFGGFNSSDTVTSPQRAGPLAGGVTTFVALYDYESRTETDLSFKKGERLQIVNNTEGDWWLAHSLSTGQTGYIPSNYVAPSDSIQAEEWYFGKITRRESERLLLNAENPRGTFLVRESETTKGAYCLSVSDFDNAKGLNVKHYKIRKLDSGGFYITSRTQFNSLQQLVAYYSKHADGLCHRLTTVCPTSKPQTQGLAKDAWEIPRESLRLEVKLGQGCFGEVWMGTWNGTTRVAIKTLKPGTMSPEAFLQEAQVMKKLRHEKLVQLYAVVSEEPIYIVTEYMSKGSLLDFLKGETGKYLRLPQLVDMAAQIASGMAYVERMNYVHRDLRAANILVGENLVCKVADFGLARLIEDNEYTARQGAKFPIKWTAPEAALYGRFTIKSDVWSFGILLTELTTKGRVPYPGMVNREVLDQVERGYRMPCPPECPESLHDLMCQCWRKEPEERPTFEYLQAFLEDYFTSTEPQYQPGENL

PRKG1 (human) = PRKG1 (human) (UniProt Q13976)
Chain of PRKG1 (human) (Q13976 whole entry, looked up): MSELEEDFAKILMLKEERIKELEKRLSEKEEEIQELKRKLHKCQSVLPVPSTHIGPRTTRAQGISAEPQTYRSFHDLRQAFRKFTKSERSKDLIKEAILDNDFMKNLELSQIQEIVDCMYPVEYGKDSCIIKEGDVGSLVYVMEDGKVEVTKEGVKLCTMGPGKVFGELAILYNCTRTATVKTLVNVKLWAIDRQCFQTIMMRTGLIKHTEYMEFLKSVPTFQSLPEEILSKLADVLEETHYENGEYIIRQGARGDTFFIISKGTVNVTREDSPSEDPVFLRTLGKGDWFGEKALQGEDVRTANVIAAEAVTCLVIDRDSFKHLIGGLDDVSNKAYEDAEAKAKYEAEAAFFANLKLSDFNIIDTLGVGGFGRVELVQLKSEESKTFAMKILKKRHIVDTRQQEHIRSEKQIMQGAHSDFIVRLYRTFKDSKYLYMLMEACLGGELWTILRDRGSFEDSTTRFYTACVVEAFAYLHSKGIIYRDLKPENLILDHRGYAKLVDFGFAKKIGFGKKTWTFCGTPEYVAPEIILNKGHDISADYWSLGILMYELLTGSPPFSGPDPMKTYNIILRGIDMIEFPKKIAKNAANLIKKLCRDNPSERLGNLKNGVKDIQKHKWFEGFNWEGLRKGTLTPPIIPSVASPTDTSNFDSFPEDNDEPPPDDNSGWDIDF

MINK1 (human) = MINK1 (human) (UniProt Q8N4C8)
CDK4 CCND3 (human) = CDK4 CCND3 (human) (UniProt P30281+P11802)
ROCK2 (human) = ROCK2 (human) (UniProt O75116)
CAMK2D (human) = CAMK2D (human) (UniProt Q13557)
CAMK2G (human) = CAMK2G (human) (UniProt Q13555)

Chain of LCK (human) (P06239 whole entry, looked up): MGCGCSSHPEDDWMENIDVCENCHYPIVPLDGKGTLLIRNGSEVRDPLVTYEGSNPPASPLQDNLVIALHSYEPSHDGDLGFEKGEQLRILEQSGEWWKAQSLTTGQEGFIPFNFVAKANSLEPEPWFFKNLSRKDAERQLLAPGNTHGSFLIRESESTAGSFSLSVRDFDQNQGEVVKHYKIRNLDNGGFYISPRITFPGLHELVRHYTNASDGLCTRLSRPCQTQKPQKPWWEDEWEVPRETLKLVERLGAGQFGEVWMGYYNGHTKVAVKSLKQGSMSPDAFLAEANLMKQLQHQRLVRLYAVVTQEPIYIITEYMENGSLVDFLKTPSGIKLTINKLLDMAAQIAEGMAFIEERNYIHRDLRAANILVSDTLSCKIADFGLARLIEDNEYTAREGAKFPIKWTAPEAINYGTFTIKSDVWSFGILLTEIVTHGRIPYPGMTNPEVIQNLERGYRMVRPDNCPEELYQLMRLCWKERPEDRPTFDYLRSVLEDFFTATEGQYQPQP

O=C1NC(=O)C(c2cn(CCCn3ccnc3)c3ccccc23)=C1Nc1ccccc1
residual activity (TGFBR2 (human)): 134% | residual activity (LCK (human)): 99.4% | residual activity (JAK3 JH1 JH2 (human)): 7.97% | residual activity (MAP4K4 (human)): 64% | residual activity (CAMK4 (human)): 103% | residual activity (CAMK1 (human)): 106% | residual activity (CAMK2A (human)): 95.5% | residual activity (NEK9 (human)): 89.1% | residual activity (MAPKAPK3 (human)): 92.4% | residual activity (CLK1 (human)): 43.3% | residual activity (IRAK1 (human)): 118% | residual activity (FGR (human)): 86.3% | residual activity (CDK6 CCND3 (human)): 104% | residual activity (PASK (human)): 98% | residual activity (MAP2K1 (human)): 90.6% | residual activity (MAP3K11 (human)): 13.3% | residual activity (CDK5 CDK5R1 p35 (human)): 91.4% | residual activity (PNCK (human)): 90.6% | residual activity (MAPK8 (human)): 99.6% | residual activity (STK3 (human)): 52% | residual activity (CAMK2B (human)): 93.8% | residual activity (MAPK3 (human)): 103% | residual activity (STK16 (human)): 110% | residual activity (GRK5 (human)): 90.9% | residual activity (STK17A (human)): 93.1% | residual activity (STK25 (human)): 63.1% | residual activity (NEK6 (human)): 93.6% | residual activity (MYLK (human)): 81.6% | residual activity (EPHB3 (human)): 99.7% | residual activity (MAP3K7 TAB1 (human)): 93.8% | residual activity (STK38 (human)): 99.1% | residual activity (STK10 (human)): 11.5% | residual activity (STK33 (human)): 82.9% | residual activity (MAP3K5 (human)): 105% | residual activity (DCLK2 (human)): 96.3% | residual activity (SRC (human)): 100% | residual activity (PRKG1 (human)): 88.8% and 89.3% | residual activity (MINK1 (human)): 90.1% | residual activity (CDK4 CCND3 (human)): 91% | residual activity (ROCK2 (human)): 100% | residual activity (CAMK2D (human)): 85.4% | residual activity (CAMK2G (human)): 90.9%

O=C1NC(=O)c2c1c1c3ccccc3n3c1c1c2c2ccccc2n1C1CCC3O1
residual activity (TGFBR2 (human)): 70.3% | residual activity (LCK (human)): 36.2% | residual activity (JAK3 JH1 JH2 (human)): 1.87% | residual activity (MAP4K4 (human)): 0.995% | residual activity (CAMK4 (human)): 98.7% | residual activity (CAMK1 (human)): 69.7% | residual activity (CAMK2A (human)): 2.84% | residual activity (NEK9 (human)): 23.4% | residual activity (MAPKAPK3 (human)): 93.1% | residual activity (CLK1 (human)): 43.1% | residual activity (IRAK1 (human)): 37.5% | residual activity (FGR (human)): 30.9% | residual activity (CDK6 CCND3 (human)): 19.9% | residual activity (PASK (human)): 43.3% | residual activity (MAP2K1 (human)): 29.5% | residual activity (MAP3K11 (human)): 1.37% | residual activity (CDK5 CDK5R1 p35 (human)): 23.3% | residual activity (PNCK (human)): 50.5% | residual activity (MAPK8 (human)): 98.5% | residual activity (STK3 (human)): 3.22% | residual activity (CAMK2B (human)): 9.85% | residual activity (MAPK3 (human)): 102% | residual activity (STK16 (human)): 58.1% | residual activity (GRK5 (human)): 88.7% | residual activity (STK17A (human)): 8.65% | residual activity (STK25 (human)): 34.4% | residual activity (NEK6 (human)): 93.1% | residual activity (MYLK (human)): 4.01% | residual activity (EPHB3 (human)): 93.2% | residual activity (MAP3K7 TAB1 (human)): 6.06% | residual activity (STK38 (human)): 46.2% | residual activity (STK10 (human)): 9.25% | residual activity (STK33 (human)): 12.7% | residual activity (MAP3K5 (human)): 56.2% | residual activity (DCLK2 (human)): 89.6% | residual activity (SRC (human)): 69.5% | residual activity (PRKG1 (human)): 35.7% and 41.3% | residual activity (MINK1 (human)): 0.901% | residual activity (CDK4 CCND3 (human)): 22.2% | residual activity (ROCK2 (human)): 73.7% | residual activity (CAMK2D (human)): 7.03% | residual activity (CAMK2G (human)): 8.36%
